Data reported in PMC6329299 (The pharmacogenomics journal, 2015).
Where a chain is given by its changes, count along the chain named. Where a name gives a salt, the structure may show the parent alone.

How the values were obtained:
[1] = Hydrolysis by human intestine s9 fractions; type: in vitro ADME; conditions: substrate 100 μM, 3 concentrations of HIS9
Hydrolysis = conditions: for Vmax: HLS9, PBS pH 7.4, 37 °C, unit for ACEIs other than enalapril; for Km: human, pooled human liver s9 fractions (HLS9), pH 7.4; for Hydrolysis to active metabolite by human liver s9 fractions: prodrug 100 μM, 3 concentrations of HLS9
[2] = Hydrolysis by human kidney s9 fractions; type: in vitro ADME; conditions: substrate 100 μM, 3 concentrations of HKS9
CES1 variant G143E [3] = biological target: T1, CES1 variant G143E (Homo sapiens, UniProt P23141, G142E); test: Hydrolysis by s9 fractions of cells stably expressing the CES1 variant G143E; conditions: prodrug 100 μM, 3 concentrations of cell s9
T1 sequence (P23141 18-568 isoform P23141-2 G143E limits assumed): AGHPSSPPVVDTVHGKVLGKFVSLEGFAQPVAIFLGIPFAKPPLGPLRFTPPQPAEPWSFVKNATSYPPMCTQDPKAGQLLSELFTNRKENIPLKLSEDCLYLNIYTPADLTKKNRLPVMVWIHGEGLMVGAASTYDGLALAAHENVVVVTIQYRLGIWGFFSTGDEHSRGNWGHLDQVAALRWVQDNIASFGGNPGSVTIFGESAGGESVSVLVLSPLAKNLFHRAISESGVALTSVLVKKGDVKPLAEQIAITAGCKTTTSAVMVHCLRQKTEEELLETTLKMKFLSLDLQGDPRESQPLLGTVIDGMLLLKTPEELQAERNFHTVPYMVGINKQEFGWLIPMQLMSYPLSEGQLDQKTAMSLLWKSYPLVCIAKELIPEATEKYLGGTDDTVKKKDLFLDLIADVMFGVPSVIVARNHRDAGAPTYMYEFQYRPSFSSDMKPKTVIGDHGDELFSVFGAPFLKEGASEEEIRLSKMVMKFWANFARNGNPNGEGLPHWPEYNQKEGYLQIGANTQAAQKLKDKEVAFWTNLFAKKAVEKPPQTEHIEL

wild type (WT) CES1 = biological target: T2, wild type (WT) CES1 (Homo sapiens, UniProt P23141); conditions: prodrug 100 μM, 3 concentrations of cell s9
T2 sequence (P23141 18-568 isoform P23141-2 limits assumed): T1 sequence (P23141 18-568 isoform P23141-2 G143E limits assumed) with E126G

[4] = ref [24]; cited from earlier work
CES1 variant G143E [5] = biological target: T1, CES1 variant G143E; conditions: in vitro function study; ref [13], [15], [22], [23]; cited from earlier work
[6] = Japanese cancer patients receiving irinotecan; ref [21]; cited from earlier work
[7] = after oseltamivir; ref [26]; cited from earlier work
[8] = ref [20]; cited from earlier work
[9] = system: CES1 in individual human liver s9 fractions; type: in vitro ADME; conditions: CES1 expression comparable to pooled HLS9
not read [10] = substrate: CCOC(=O)[C@H](CCc1ccccc1)N[C@@H](C)C(=O)N1Cc2cc(OC)c(OC)cc2C[C@H]1C(=O)O; test: not read; conditions: other: WT CES1 cell s9; pH 7.4
not read [11] = substrate: CCOC(=O)[C@H](CCc1ccccc1)N[C@@H](C)C(=O)N1CCC[C@H]1C(=O)O; test: not read; conditions: other: WT CES1 cell s9; pH 7.4
not read [12] = substrate: CCOC(=O)[C@H](CCc1ccccc1)N[C@@H](C)C(=O)N1[C@H](C(=O)O)C[C@@H]2CCC[C@@H]21; test: not read; conditions: other: WT CES1 cell s9; pH 7.4
not read [13] = substrate: CCC(=O)O[C@@H](O[P@](=O)(CCCCc1ccccc1)CC(=O)N1C[C@H](C2CCCCC2)C[C@H]1C(=O)O)C(C)C; test: not read; conditions: other: WT CES1 cell s9; pH 7.4
not read [14] = substrate: CCC[C@H](N[C@@H](C)C(=O)N1[C@H](C(=O)O)C[C@@H]2CCCC[C@@H]21)C(=O)OCC; test: not read; conditions: other: WT CES1 cell s9; pH 7.4

CCC(=O)O[C@@H](O[P@](=O)(CCCCc1ccccc1)CC(=O)N1C[C@H](C2CCCCC2)C[C@H]1C(=O)O)C(C)C [Fosinopril, Fosinopril sodium salt]
Hydrolysis by human intestine s9 fractions [1]: No appreciable activation | Vmax (Hydrolysis): 1.4 ± 0.2 nmole/min/mg protein | Km (Hydrolysis): 471 ± 212 µM | Hydrolysis to active metabolite by human liver s9 fractions (Hydrolysis): efficiently hydrolyzed | Hydrolysis by human kidney s9 fractions [2]: No appreciable activation

CCOC(=O)[C@H](CCc1ccccc1)N[C@@H](C)C(=O)N1Cc2cc(OC)c(OC)cc2C[C@H]1C(=O)O [Moexipril, moexipril hydrochloride]
Hydrolysis by human intestine s9 fractions [1]: No appreciable activation | Vmax (Hydrolysis): 4.4 ± 0.3 nmole/min/mg protein | Km (Hydrolysis): 1460 ± 266 µM | Hydrolysis to active metabolite by human liver s9 fractions (Hydrolysis): efficiently hydrolyzed | Hydrolysis by human kidney s9 fractions [2]: No appreciable activation

CC(=O)Oc1ccc([N+](=O)[O-])cc1 [PNPA, p-nitrophenyl acetate]
Hydrolysis by human intestine s9 fractions [1]: readily hydrolyzed | Hydrolysis by human kidney s9 fractions [2]: readily hydrolyzed

CCC[C@H](N[C@@H](C)C(=O)N1[C@H](C(=O)O)C[C@@H]2CCCC[C@@H]21)C(=O)OCC [Perindopril, perindopril erbumine]
Hydrolysis by human intestine s9 fractions [1]: No appreciable activation | Vmax (Hydrolysis): 18.1 ± 0.8 nmole/min/mg protein | Km (Hydrolysis): 1770 ± 165 µM | Hydrolysis to active metabolite by human liver s9 fractions (Hydrolysis): efficiently hydrolyzed | Hydrolysis by human kidney s9 fractions [2]: No appreciable activation

CCOC(=O)[C@H](CCc1ccccc1)N[C@@H](C)C(=O)N1[C@H](C(=O)O)C[C@@H]2CCC[C@@H]21 [Ramipril, ramipril]
Hydrolysis by human intestine s9 fractions [1]: No appreciable activation | Active metabolite after incubation with CES1 variant G143E (CES1 variant G143E [3]): not detected | Vmax (Hydrolysis): 18.1 ± 0.7 nmole/min/mg protein | Km (Hydrolysis): 690 ± 61.8 µM | Hydrolysis to active metabolite by human liver s9 fractions (Hydrolysis): efficiently hydrolyzed | Hydrolysis to active metabolite by WT CES1 (wild type (WT) CES1): readily hydrolyzed | Hydrolysis by human kidney s9 fractions [2]: No appreciable activation

COC(=O)[C@H](c1ccccc1Cl)N1CC[C@@H](S)/C(=C\C(=O)O)C1 [clopidogrel active metabolite]
concentrations higher in patients carrying heterozygous 143E relative to 143GG [4]: approximately 60%

COC(=O)[C@H](c1ccccc1Cl)N1CCc2sccc2C1 [clopidogrel]
Function of the G143E variant for metabolism of the substrate (CES1 variant G143E [5]): loss-of-function

CCc1c2c(nc3ccc(OC(=O)N4CCC(N5CCCCC5)CC4)cc13)-c1cc3c(c(=O)n1C2)COC(=O)[C@]3(O)CC [irinotecan]
median AUC ratios of metabolites SN-38 and SN-38G to parent compound, higher in CES1P1VAR heterozygous and homozygous patients vs CES1P1/CES1P1 [6]: 24%

COC(=O)C(c1ccccc1)C1CCCCN1 (centres unmarked) [methylphenidate]
Function of the G143E variant for metabolism of the substrate (CES1 variant G143E [5]): loss-of-function

CCC(CC)O[C@@H]1C=C(C(=O)O)C[C@H](N)[C@H]1NC(C)=O [oseltamivir carboxylate]
mean Cmax lower in 143E heterozygotes than in non-carriers [7]: 17.5%

CCOC(=O)C1=C[C@@H](OC(CC)CC)[C@H](NC(C)=O)[C@@H](N)C1 [oseltamivir]
Metabolism in healthy subjects with different CES1/CES1VAR genotypes [8]: not significantly different

CCOC(=O)[C@H](CCc1ccccc1)N[C@@H](C)C(=O)N1[C@H](C(=O)O)C[C@H]2CCCC[C@@H]21 [trandolapril]
Function of the G143E variant for metabolism of the substrate (CES1 variant G143E [5]): loss-of-function | CES1 activity in the null-CES1 liver samples (some G143E non-carriers) [9]: inactive

B1: wild type (WT) CES1 (Homo sapiens) (protein)
chain: T1 sequence (P23141 18-568 isoform P23141-2 G143E limits assumed) with E126G
Km (not read [10]): 143.6 ± 24.5 µM | Vmax (not read [10]): 1.8 ± 0.1 nmole/min/mg protein | Vmax/Km (not read [10]): 12.4 μl/min/mg protein | Km (not read [11]): 36.6 ± 4.5 µM | Vmax (not read [11]): 389.0 ± 16.1 pmole/min/mg protein | Vmax/Km (not read [11]): 10.6 μl/min/mg protein | Km (not read [12]): 245.6 ± 39.9 µM | Vmax (not read [12]): 11.6 ± 0.6 nmole/min/mg protein | Vmax/Km (not read [12]): 47.1 μl/min/mg protein | Km (not read [13]): 276.1 ± 83.2 µM | Vmax (not read [13]): 1.6 ± 0.1 nmole/min/mg protein | Vmax/Km (not read [13]): 5.7 μl/min/mg protein | Km (not read [14]): 477.5 ± 60.9 µM | Vmax (not read [14]): 8.3 ± 0.4 nmole/min/mg protein | Vmax/Km (not read [14]): 17.4 μl/min/mg protein
